These results are taken from patent US20030125253A1, “Novel protein, process for producing the same and use therof” (priority 2002, published 2003).

Holding throughout (type): cell-based, human
Experiment [1] concerns SSP1 mRNA in HepG2 cell. As to the kind of experiment: Change of SSP1 mRNA expression in treated HepG2 cells (TaqMan PCR). The following applies: 24 hours in serum free D-MEM medium with the agent, 25-OH 5 μg/ml, βVLDL 100 μg-TC/ml, HPβCD 5 mM, 10% FBS. How it is done:
For conducting more detailed analysis of SSP1 expression, TaqMan PCR conditions were set. The primers used were Upper Primer (SEQ ID NO: 54) and Lower Primer (SEQ ID NO: 55), and the probe used for detection was shown by SEQ ID NO: 56. In TaqMan PCR, 250 nM of Upper Primer, 250 nM of Lower Primer, 75 nM of the probe and template DNA were mixed with TaqMan Universal Mixture, and SSP1 gene was quantified by real time PCR of 40 cycle of 15 seconds at 95° C. and 60 seconds at 60° C.
After HepG2 cell was treated as shown in FIG. 7 for one day, RNA was extracted to perform a reverse transcription using oligo-dT as a primer. Then, change in the expression amount of SSP1 mRNA was analyzed using the quantification system of expression amount of SSP1 mRNA as shown in Example 6. Specifically, HepG2 cells were cultured on a 24-well plate, and incubated for 24 hours in a serum free D-MEM medium in the presence of 10% FBS (10% FBS), 5 μg/ml of 25-hydroxycholesterol (25-OH), 100 μg-TC/ml of rabbit βVLDL (βVLDL), 1 μM of Atrvastatin (ATOS), 5 mM hydroxypropyl-β-cyclodextiin (HPβCD), 10 μM progesterone (Progesterone) or 100 μM dibutyl-cyclic AMP (db-cAMP). The expression amount of SSP1 mRNA in RNA extracted from these cells was measured as a rate (%) to GAPDH mRNA measured as the internal standard.
In general terms: Real-time PCR tracks product formation cycle by cycle.

The subject of experiment [2] is SSP2 mRNA in IMR-32 cell. As to the kind of experiment: Differentiation-dependent induction of SSP2 mRNA expression in IMR-32 cells (TaqMan PCR). The following applies: 10 μM BrDU, cultured for 14 days, RNA at 7 and 14 days, cells differentiated to neuron in morphology. How it is done: For conducting more detailed analysis of SSP2 expression, TaqMan PCR conditions were set. The primers used were Upper Primer (SEQ ID NO: 57) and Lower Primer (SEQ ID NO: 58), and the probe used for detection was shown by SEQ ID NO: 59. In TaqMan PCR, 250 nM of Upper Primer, 250 nM of Lower Primer, 75 nM of the probe and template DNA were mixed with TaqMan Universal Mixture, and SSP2 gene was quantified by real time PCR of 40 cycle of 15 seconds at 95° C. and 60 seconds at 60° C. IMR-32 cells were cultured overnight at […] cells/well (6 well plate), and cultured for 14 days under four different conditions of 1 mM dibutyl cycle AMP (db-cAMP), 10 μM Bromo deoxyuridine (BrDU), 1 mM db-cAMP/10 μM BrDU and no differentiation-inducing agent. RNA was extracted from cells at 7 days and 14 days, then, SSP2 mRNA was quantified by TaqMan PCR. Induction of expression of SSP2 mRNA was recognized in cells which were differentiated to neuron in terms of morphology by 10 μM BrDU (FIG. 8).

Experiment [3] has as its system stable SSP1-overexpressing HepG2 cell. Description: ApoB lipoprotein secretion in stable SSP1-overexpressing HepG2 cells (sandwich EIA). Particulars: SSP1 stable expression HepG2 cell strains vs parent HepG2, 24 hours, 5% LPDS + oleate (BSA complex). How it is done:
SSP1 gene was subcloned into pcDNA3.1(+)-myc vector (Invitrogen), and the thus obtained expression plasmid for eucaryotic cell having the C-terminal Myc-tag was transfected into HepG2 cells by a lipofection method, and these cells were cultured in the presence of 500 ug/ml G418 to obtain G418-resistant strains. From these strains, 4 stable cell strains highly expressing SSP1 mRNA were obtained using the quantification, of expression amount of SSP1 mRNA by TaqMan PCR. A gene encoding amino acid no. 33-273 of SSP1 protein was subcloned into pET 21(+) vector (Novagen), and using the SSP1 partial protein produced in Escherichia coli as an antigen, a polyclonal antibody was prepared according to an ordinary method. The amino acid sequence of the antigen protein is shown by SEQ ID NO: (antigen AP-1). Using this antibody (AP-1), the expression of SSP1 protein in cell-extract of the four stable SSP1-expressing cell strains was investigated by a Western blotting method. […] For quantification of ApoB lipoprotein, a sandwich EIA method using an anti-human apoB goat polyclonal antibody and an anti-human apoB mouse monoclonal antibody was carried out. In the quantification, human LDL was used as a standard substance, and the concentration of ApoB lipoprotein secreted in the supernatant was represented as an equivalent human LDL value. […]

As for `C[C@H](CCCC(C)(C)O)[C@H]1CC[C@H]2[C@@H]3CC=C4C[C@@H](O)CC[C@]4(C)[C@H]3CC[C@]12C` [25OH, 25-hydroxycholesterol], the “change in the expression amount of SSP1 mRNA (rate to GAPDH mRNA)” value in experiment [1] is given as “decrease”.

Take hydroxypropyl-β-cyclodextiin [HPβCD]: the “change in the expression amount of SSP1 mRNA (rate to GAPDH mRNA)” value in experiment [1] is on record as “increase”. For `O=c1[nH]c(=O)n([C@H]2C[C@H](O)[C@@H](CO)O2)cc1Br` [BrDU, Bromo deoxyuridine], the “induction of expression of SSP2 mRNA” value in experiment [2] is listed as “Induction”. Turning to `CCCCCCCC/C=C\CCCCCCCC(=O)O` [oleic acid], the “activity to promote apoB lipoprotein secretion by addition of oleic acid” value in experiment [3] is “disappeared”.
